Results as given in PubChem BioAssay AID1259407 (Chemical Carcinogenesis Research Information System (CCRIS), 2018).
The source made the active and inactive calls. No rule for the calls is given here.

System: CCRIS mutagenicity, Ames/micronucleus/aberration tests
Assay: CCRIS mutagenicity studies

**Q.** With Nc1ccc(N)cc1 as the compound, how does the mutagenic call (End Point: IN VITRO CHROMOSOMAL ABERRATIONS, Test System: CHL CELLS, Metabolic Activation: NONE) read?
**A.** active; positive (structural changes)

**Q.** And the mutagenic call (End Point: IN VITRO CHROMOSOMAL ABERRATIONS, Test System: CHL CELLS, Metabolic Activation: RAT, LIVER, S-9, SODIUM PHENOBARBITAL AND 5,6-BENZOFLAVONE)?
**A.** active; positive (structural changes)

**Q.** What about the mutagenic call (End Point: IN VITRO MICRONUCLEUS, Test System: CHL/IU CELLS, Metabolic Activation: RAT, LIVER, S-9, PHENOBARBITAL AND 5,6-BENZOFLAVONE) of the same compound?
**A.** active; positive

**Q.** And the mutagenic call (End Point: In vitro micronucleus, Test System: Human lymphocytes, Metabolic Activation: Rat, Liver, S-9, Aroclor 1254)?
**A.** active; positive

**Q.** And the mutagenic call (Test System: AMES SALMONELLA TYPHIMURIUM, Strain/Indicator: TA98(NR), Metabolic Activation: NONE, Method: PREINCUBATION)?
**A.** inactive; negative

**Q.** What about the mutagenic call (Test System: AMES SALMONELLA TYPHIMURIUM, Strain/Indicator: TA98(NR), Metabolic Activation: RAT, LIVER, S-9, AROCLOR 1254, Method: PREINCUBATION) of the same compound?
**A.** active; positive

**Q.** What about the mutagenic call (Test System: AMES SALMONELLA TYPHIMURIUM, Strain/Indicator: TA98, Metabolic Activation: HAMSTER, LIVER, S-9, AROCLOR 1254 (30%), Method: PREINCUBATION) of the same compound?
**A.** active; positive

**Q.** What about the mutagenic call (Test System: AMES SALMONELLA TYPHIMURIUM, Strain/Indicator: TA98, Metabolic Activation: NONE) of the same compound?
**A.** inactive; negative

**Q.** What about the mutagenic call (Test System: AMES SALMONELLA TYPHIMURIUM, Strain/Indicator: TA98, Metabolic Activation: NONE, Method: PREINCUBATION) of the same compound?
**A.** inactive; negative

**Q.** And the mutagenic call (Test System: AMES SALMONELLA TYPHIMURIUM, Strain/Indicator: TA98, Metabolic Activation: NONE, Method: STANDARD PLATE)?
**A.** inactive; negative

**Q.** And the mutagenic call (Test System: AMES SALMONELLA TYPHIMURIUM, Strain/Indicator: TA98, Metabolic Activation: PEA APICAL BUD S-9, Method: PREINCUBATION)?
**A.** inactive; negative

**Q.** And the mutagenic call (Test System: AMES SALMONELLA TYPHIMURIUM, Strain/Indicator: TA98, Metabolic Activation: PEA APICAL BUD S-9, Method: STANDARD PLATE)?
**A.** inactive; negative

**Q.** What about the mutagenic call (Test System: AMES SALMONELLA TYPHIMURIUM, Strain/Indicator: TA98, Metabolic Activation: PLANT (PERSEA AMERICANA) S-117, Method: STANDARD PLATE) of the same compound?
**A.** inactive; negative

**Q.** What about the mutagenic call (Test System: AMES SALMONELLA TYPHIMURIUM, Strain/Indicator: TA98, Metabolic Activation: PLANT (ZEA MAYS) S-9, Method: STANDARD PLATE) of the same compound?
**A.** inactive; negative

**Q.** What about the mutagenic call (Test System: AMES SALMONELLA TYPHIMURIUM, Strain/Indicator: TA98, Metabolic Activation: RAT LIVER S-9, PHENOBARBITAL AND BETA-NAPHTHOFLAVONE, Method: PREINCUBATION) of the same compound?
**A.** active; positive

**Q.** What about the mutagenic call (Test System: AMES SALMONELLA TYPHIMURIUM, Strain/Indicator: TA98, Metabolic Activation: RAT, LIVER, S-9, AROCLOR 1254) of the same compound?
**A.** active; positive

**Q.** What about the mutagenic call (Test System: AMES SALMONELLA TYPHIMURIUM, Strain/Indicator: TA98, Metabolic Activation: RAT, LIVER, S-9, AROCLOR 1254 (30%), Method: PREINCUBATION) of the same compound?
**A.** active; positive

**Q.** What about the mutagenic call (Test System: AMES SALMONELLA TYPHIMURIUM, Strain/Indicator: TA100(NR), Metabolic Activation: NONE, Method: PREINCUBATION) of the same compound?
**A.** active; positive

**Q.** What about the mutagenic call (Test System: AMES SALMONELLA TYPHIMURIUM, Strain/Indicator: TA100(NR), Metabolic Activation: RAT, LIVER, S-9, AROCLOR 1254, Method: PREINCUBATION) of the same compound?
**A.** inactive; negative

**Q.** And the mutagenic call (Test System: AMES SALMONELLA TYPHIMURIUM, Strain/Indicator: TA100, Metabolic Activation: HAMSTER, LIVER, S-9, AROCLOR 1254 (30%), Method: PREINCUBATION)?
**A.** inactive; negative

**Q.** And the mutagenic call (Test System: AMES SALMONELLA TYPHIMURIUM, Strain/Indicator: TA100, Metabolic Activation: NONE, Method: PREINCUBATION)?
**A.** inactive; negative

**Q.** What about the mutagenic call (Test System: AMES SALMONELLA TYPHIMURIUM, Strain/Indicator: TA100, Metabolic Activation: NONE, Method: STANDARD PLATE) of the same compound?
**A.** inactive; negative

**Q.** What about the mutagenic call (Test System: AMES SALMONELLA TYPHIMURIUM, Strain/Indicator: TA100, Metabolic Activation: PEA APICAL BUD S-9, Method: PREINCUBATION) of the same compound?
**A.** inactive; negative

**Q.** And the mutagenic call (Test System: AMES SALMONELLA TYPHIMURIUM, Strain/Indicator: TA100, Metabolic Activation: PEA APICAL BUD S-9, Method: STANDARD PLATE)?
**A.** inactive; negative

**Q.** What about the mutagenic call (Test System: AMES SALMONELLA TYPHIMURIUM, Strain/Indicator: TA100, Metabolic Activation: PLANT (PERSEA AMERICANA) S-117, Method: STANDARD PLATE) of the same compound?
**A.** inactive; negative

**Q.** And the mutagenic call (Test System: AMES SALMONELLA TYPHIMURIUM, Strain/Indicator: TA100, Metabolic Activation: PLANT (ZEA MAYS) S-9, Method: STANDARD PLATE)?
**A.** inactive; negative

**Q.** And the mutagenic call (Test System: AMES SALMONELLA TYPHIMURIUM, Strain/Indicator: TA100, Metabolic Activation: RAT LIVER S-9, PHENOBARBITAL AND BETA-NAPHTHOFLAVONE, Method: PREINCUBATION)?
**A.** inactive; negative

**Q.** And the mutagenic call (Test System: AMES SALMONELLA TYPHIMURIUM, Strain/Indicator: TA100, Metabolic Activation: RAT, LIVER, S-9, AROCLOR 1254 (30%), Method: PREINCUBATION)?
**A.** inactive; negative

**Q.** And the mutagenic call (Test System: AMES SALMONELLA TYPHIMURIUM, Strain/Indicator: TA100, Metabolic Activation: RAT, LIVER, S-9, AROCLOR 1254, Method: PREINCUBATION)?
**A.** inactive; negative

**Q.** And the mutagenic call (Test System: AMES SALMONELLA TYPHIMURIUM, Strain/Indicator: TA100, Metabolic Activation: RAT, LIVER, S-9, AROCLOR 1254, Method: STANDARD PLATE)?
**A.** inactive; negative

**Q.** And the mutagenic call (Test System: AMES SALMONELLA TYPHIMURIUM, Strain/Indicator: TA102, Metabolic Activation: NONE, Method: STANDARD PLATE)?
**A.** inactive; negative

**Q.** What about the mutagenic call (Test System: AMES SALMONELLA TYPHIMURIUM, Strain/Indicator: TA1535, Metabolic Activation: NONE, Method: PREINCUBATION) of the same compound?
**A.** inactive; negative

**Q.** And the mutagenic call (Test System: AMES SALMONELLA TYPHIMURIUM, Strain/Indicator: TA1535, Metabolic Activation: RAT LIVER S-9, PHENOBARBITAL AND BETA-NAPHTHOFLAVONE, Method: PREINCUBATION)?
**A.** inactive; negative

**Q.** And the mutagenic call (Test System: AMES SALMONELLA TYPHIMURIUM, Strain/Indicator: TA1537, Metabolic Activation: NONE, Method: PREINCUBATION)?
**A.** inactive; negative

**Q.** What about the mutagenic call (Test System: AMES SALMONELLA TYPHIMURIUM, Strain/Indicator: TA1537, Metabolic Activation: RAT LIVER S-9, PHENOBARBITAL AND BETA-NAPHTHOFLAVONE, Method: PREINCUBATION) of the same compound?
**A.** inactive; negative

**Q.** And the mutagenic call (Test System: AMES SALMONELLA TYPHIMURIUM, Strain/Indicator: TA1538, Metabolic Activation: RAT, LIVER, S-9, PHENOBARBITAL, Method: STANDARD PLATE)?
**A.** active; positive
